Assay results reported in ChEMBL document CHEMBL5126621, “Modifying a Hydroxyl Patch in Glucagon-like Peptide 1 Produces Biased Agonists with Unique Signaling Profiles” (J Med Chem, 2022).
Active and inactive are the calls of the source. No cut-off for these calls is given here. Where a SMILES comes first, the peptide text is derived from it. [ ]: non-standard residue; d: D form. Abu = CC[C@H](N)C(=O)O

Columns and labels:
[1] = Drug uptake in human GLP-1R expressed in CHO cells coexpressing GFP assessed as drug internalization at 100 nM incubated for 30 mins by inverted microscopic analysis; format: ADME, cell-based, Cricetulus griseus; conditions: chinese hamster, 0.5 h, 0.1 µM
[2] = biological target: T1, Glucagon-like peptide 1 receptor (Homo sapiens, UniProt P43220); assay: Agonist activity at human GLP-1R expressed in CHO cells coexpressing GFP assessed as receptor internalization at 10 uM by confocal fluorescence microscopy; format: functional, cell-based; conditions: filed as agonist
[3] = biological target: T1, Glucagon-like peptide 1 receptor; assay: Agonist activity at human GLP-1R expressed in CHO cells coexpressing GFP assessed as increase in glucagon-like peptide 1-induced receptor internalization at 10 uM by confocal fluorescence microscopy; format: functional, cell-based; conditions: filed as agonist, time 30.0 min
[4] = biological target: T1, Glucagon-like peptide 1 receptor
Description: Agonist activity at human GLP-1R assessed as increase in ERK1/2 phosphorylation at Thr202/Tyr204 residues incubated for 20 mins by AlphaLISA assay

[5] = biological target: T1, Glucagon-like peptide 1 receptor; remark: listed apart in the source
[6] = biological target: T1, Glucagon-like peptide 1 receptor; remark: listed apart in the source
Description: Agonist activity at human GLP-1R expressed in CHO cells coexpressing beta-arrestin-2 assessed as stimulation intracellular calcium mobilization measured after 180 secs by Fluo-3-AM dye based fluorescence assay

[7] = biological target: T1, Glucagon-like peptide 1 receptor; remark: listed apart in the source
Description: Agonist activity at human GLP-1R expressed in CHO cells coexpressing beta-arrestin-2 assessed as increase in beta arrestin-2 recruitment incubated for 1 hr by chemiluminescence based pathHunter assay

[8] = biological target: T1, Glucagon-like peptide 1 receptor; remark: listed apart in the source
Description: Agonist activity at human GLP-1R expressed in CHO cells coexpressing beta-arrestin-2 assessed as reduction in cAMP accumulation incubated for 2 hrs under dark condition by LANCE cAMP assay

Mus musculus [9] = assay: Reduction in blood glucose level in intraperitoneal glucose injected C57BL/6J mouse by measuring glucose area under curve at 0.1 mg/kg, ip administered as single dose measured in 90 mins by glucose tolerance test; format: functional, organism-based
[10] = biological target: T1, Glucagon-like peptide 1 receptor; assay: Receptor residence time at human GLP-1R expressed in CHO cells coexpressing beta-arrestin-2 assessed as inhibition of glucagon-like peptide 1-induced calcium mobilization by measuring half life at 100 uM preincubated for 30 mins followed by glucagon-like peptide 1 addition measured upto 4 hrs by calcium mobilization assay; format: functional, cell-based; conditions: filed as agonist
[11] = biological target: T1, Glucagon-like peptide 1 receptor; assay: Binding affinity to human GLP-1R expressed in CHO cells coexpressing beta-arrestin-2 assessed as fold increase in affinity incubated for 1 hr in presence of N-(tert-butyl)-6,7-dichloro-3-(methylsulfonyl)quinoxalin-2-amine by time-resolved fluorescence assay; format: cell-based
Mus musculus [12] = assay: Induction of plasma insulin level in C57BL/6J mouse assessed as increase in insulin level at 0.1 mg/kg, ip administered as single dose measured at 10 mins in presence of glucose; format: functional, organism-based
INS1 = assay: Induction of glucose-stimulated insulin secretion in rat INS1 cells measured after 1 to 16 hrs by HTRF assay; format: functional, cell-based; conditions: dose 10-1e+07 pM, time lower 1.0 hrs, time upper […], DDE = dose-dependent effect
Mus musculus [13] = assay: Reduction in blood glucose level in intraperitoneal glucose injected C57BL/6J mouse at 0.1 mg/kg, ip administered as single dose measured 20 to 60 mins by glucose tolerance test; format: functional, organism-based; conditions: time 20-60 min

T1 sequence (P43220 whole entry): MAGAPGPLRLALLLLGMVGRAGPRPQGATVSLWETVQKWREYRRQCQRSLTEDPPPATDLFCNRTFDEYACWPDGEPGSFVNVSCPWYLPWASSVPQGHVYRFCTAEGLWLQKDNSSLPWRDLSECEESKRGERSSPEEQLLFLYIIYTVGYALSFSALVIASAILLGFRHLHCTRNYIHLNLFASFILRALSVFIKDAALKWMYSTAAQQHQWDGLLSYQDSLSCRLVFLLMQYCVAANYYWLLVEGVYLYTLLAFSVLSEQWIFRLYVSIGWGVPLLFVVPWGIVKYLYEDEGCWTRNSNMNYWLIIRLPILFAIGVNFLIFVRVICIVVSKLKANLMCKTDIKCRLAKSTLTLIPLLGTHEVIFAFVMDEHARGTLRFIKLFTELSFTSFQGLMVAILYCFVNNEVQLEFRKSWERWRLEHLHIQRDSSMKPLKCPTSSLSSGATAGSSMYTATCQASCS

| Compound | Drug uptake [1] | Activity [2] | Activity [3] | EC50 [4] | IC50 [5] | EC50 [6] | EC50 [7] | EC50 [8] | T1/2 [10] | fold change (FC) [11] | Activity (Mus musculus [9]) | Activity (Mus musculus [12]) | Activity (INS1) | Activity (Mus musculus [13]) |
| --- | --- | --- | --- | --- | --- | --- | --- | --- | --- | --- | --- | --- | --- | --- |
| CC[C@H](C)[C@H](NC(=O)[C@H](Cc1ccccc1)NC(=O)[C@H](CCC(=O)O)NC(=O)[C@H](CCCCN)NC(=O)[C@H](C)NC(=O)[C@H](C)NC(=O)[C@H](CCC(N)=O)NC(=O)CNC(=O)[C@H](CCC(=O)O)NC(=O)[C@H](CC(C)C)NC(=O)[C@H](Cc1ccc(O)cc1)NC(=O)[C@H](CO)NC(=O)[C@H](CO)NC(=O)[C@@H](NC(=O)[C@H](CC(=O)O)NC(=O)[C@H](CO)NC(=O)[C@@H](NC(=O)[C@H](Cc1ccccc1)NC(=O)[C@@H](NC(=O)CNC(=O)[C@H](CCC(=O)O)NC(=O)[C@H](C)NC(=O)[C@@H](N)Cc1c[nH]cn1)[C@@H](C)O)[C@@H](C)O)C(C)C)C(=O)N[C@@H](C)C(=O)N[C@@H](Cc1c[nH]c2ccccc12)C(=O)N[C@@H](CC(C)C)C(=O)N[C@H](C(=O)N[C@@H](CCCCN)C(=O)NCC(=O)N[C@@H](CCCNC(=N)N)C(N)=O)C(C)C | Active | – | – | – | – | – | – | – | – | – | – | – | – | – |
| CC(C)(C)Nc1nc2cc(Cl)c(Cl)cc2nc1S(C)(=O)=O | – | Active | Active | – | – | – | – | – | – | – | – | – | – | – |
| CC[S+]([O-])c1nc(-c2cccc(OCc3ccccc3)c2)cc(C(F)(F)F)n1 (stereo unspecified) | – | Active | Active | – | – | – | – | – | – | – | – | – | – | – |

The next lines start with results.

| Drug uptake [1] | Activity [2] | Activity [3] | EC50 [4] | IC50 [5] | EC50 [6] | EC50 [7] | EC50 [8] | T1/2 [10] | fold change (FC) [11] | Compound | Activity (Mus musculus [9]) | Activity (Mus musculus [12]) | Activity (INS1) | Activity (Mus musculus [13]) |
| --- | --- | --- | --- | --- | --- | --- | --- | --- | --- | --- | --- | --- | --- | --- |
| – | – | – | > 10000 nM | 398 nM | > 100000 nM | > 10000 nM | 5.01 nM | – | – | CC[C@H](NC(=O)[C@H](CC)NC(=O)[C@@H](NC(=O)[C@H](CC(=O)O)NC(=O)[C@H](CC)NC(=O)[C@@H](NC(=O)[C@H](Cc1ccccc1)NC(=O)[C@@H](NC(=O)CNC(=O)[C@H](CCC(=O)O)NC(=O)[C@H](C)NC(=O)[C@@H](N)Cc1c[nH]cn1)C(C)C)[C@@H](C)O)C(C)C)C(=O)N[C@@H](Cc1ccc(O)cc1)C(=O)N[C@@H](CC(C)C)C(=O)N[C@@H](CCC(=O)O)C(=O)NCC(=O)N[C@@H](CCC(N)=O)C(=O)N[C@@H](C)C(=O)N[C@@H](C)C(=O)N[C@@H](CCCCN)C(=O)N[C@@H](CCC(=O)O)C(=O)N[C@@H](Cc1ccccc1)C(=O)N[C@H](C(=O)N[C@@H](C)C(=O)N[C@@H](Cc1c[nH]c2ccccc12)C(=O)N[C@@H](CC(C)C)C(=O)N[C@H](C(=O)N[C@@H](CCCCN)C(=O)NCC(=O)N[C@@H](CCCNC(=N)N)C(N)=O)C(C)C)[C@@H](C)CC (H-HAEGVFT[Abu]DV[Abu][Abu]YLEGQAAKEFIAWLVKGR-NH2) | – | – | – | – |
| Active | – | – | > 100000 nM | 251 nM | > 100000 nM | > 10000 nM | 0.0398 nM | 4 h | 10 | H-HAEGAFTADVAAYLEGQAAKEFIAWLVKGR-NH2 | Active | Active | Dde | Active |
| Active | – | – | > 10000 nM | 251 nM | 794 nM | 158 nM | 0.00501 nM | – | – | H-HAEGTFTADVAAYLEGQAAKEFIAWLVKGR-NH2 | Active | Active | – | Active |
